Laboratory results from ChEMBL document CHEMBL1132568, “Synthesis, pharmacological evaluation, and structure-activity relationship and quantitative structure-activity relationship studies on novel derivatives of 2,4-diamino-6,7-dimethoxyquinazoline alpha1-adrenoceptor antagonists” (J Med Chem, 1999).

Legend:
[1] = target: T1, Adrenergic receptor alpha-2 (Rattus norvegicus, UniProt P22086+P19328+P22909); assay: Inhibitory concentration against Alpha-2 adrenergic receptor; format: protein assay
T1 sequence (P22086 whole entry): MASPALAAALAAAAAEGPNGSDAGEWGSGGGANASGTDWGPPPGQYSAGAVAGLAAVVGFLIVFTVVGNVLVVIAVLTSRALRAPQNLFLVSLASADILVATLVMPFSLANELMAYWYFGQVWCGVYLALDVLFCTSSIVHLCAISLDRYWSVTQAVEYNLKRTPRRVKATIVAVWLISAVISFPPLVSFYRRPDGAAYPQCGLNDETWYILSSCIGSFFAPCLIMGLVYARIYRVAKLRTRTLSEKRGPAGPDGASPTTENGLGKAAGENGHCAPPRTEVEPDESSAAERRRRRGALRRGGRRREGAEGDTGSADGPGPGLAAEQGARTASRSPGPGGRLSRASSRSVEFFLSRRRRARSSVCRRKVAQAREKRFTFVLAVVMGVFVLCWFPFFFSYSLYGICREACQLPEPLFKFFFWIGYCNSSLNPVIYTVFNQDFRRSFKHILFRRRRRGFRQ
T1 sequence (P19328 whole entry): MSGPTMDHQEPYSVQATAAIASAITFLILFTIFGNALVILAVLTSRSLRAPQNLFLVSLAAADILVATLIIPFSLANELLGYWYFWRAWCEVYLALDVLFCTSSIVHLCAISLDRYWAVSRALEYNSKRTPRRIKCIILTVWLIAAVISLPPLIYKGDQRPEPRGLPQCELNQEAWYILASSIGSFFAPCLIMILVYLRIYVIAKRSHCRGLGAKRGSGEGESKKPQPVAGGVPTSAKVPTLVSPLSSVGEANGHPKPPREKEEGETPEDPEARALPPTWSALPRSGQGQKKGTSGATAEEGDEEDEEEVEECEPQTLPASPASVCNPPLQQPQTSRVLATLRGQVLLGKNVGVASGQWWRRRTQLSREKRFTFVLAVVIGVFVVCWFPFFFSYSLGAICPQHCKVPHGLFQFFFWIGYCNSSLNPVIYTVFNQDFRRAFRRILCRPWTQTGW
T1 sequence (P22909 whole entry): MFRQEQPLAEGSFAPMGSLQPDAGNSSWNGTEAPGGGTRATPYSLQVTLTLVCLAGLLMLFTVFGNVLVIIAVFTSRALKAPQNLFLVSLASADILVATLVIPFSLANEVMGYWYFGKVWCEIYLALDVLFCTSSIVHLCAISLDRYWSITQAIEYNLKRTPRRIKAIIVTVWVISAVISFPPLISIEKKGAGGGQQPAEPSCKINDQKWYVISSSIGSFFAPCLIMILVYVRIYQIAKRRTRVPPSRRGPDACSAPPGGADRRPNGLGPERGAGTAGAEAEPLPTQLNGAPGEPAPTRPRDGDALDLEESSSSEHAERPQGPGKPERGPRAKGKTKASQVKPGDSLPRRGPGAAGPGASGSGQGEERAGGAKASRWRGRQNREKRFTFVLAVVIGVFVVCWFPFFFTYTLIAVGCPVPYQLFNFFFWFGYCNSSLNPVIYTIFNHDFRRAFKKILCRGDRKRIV

[2] = target: T2, Adrenergic receptor alpha-1 (Rattus norvegicus, UniProt P15823+P23944+P43140); assay: Inhibition of Alpha-1 adrenergic receptor in rat cortex membrane; format: cell membranes
T2 sequence (P15823 whole entry): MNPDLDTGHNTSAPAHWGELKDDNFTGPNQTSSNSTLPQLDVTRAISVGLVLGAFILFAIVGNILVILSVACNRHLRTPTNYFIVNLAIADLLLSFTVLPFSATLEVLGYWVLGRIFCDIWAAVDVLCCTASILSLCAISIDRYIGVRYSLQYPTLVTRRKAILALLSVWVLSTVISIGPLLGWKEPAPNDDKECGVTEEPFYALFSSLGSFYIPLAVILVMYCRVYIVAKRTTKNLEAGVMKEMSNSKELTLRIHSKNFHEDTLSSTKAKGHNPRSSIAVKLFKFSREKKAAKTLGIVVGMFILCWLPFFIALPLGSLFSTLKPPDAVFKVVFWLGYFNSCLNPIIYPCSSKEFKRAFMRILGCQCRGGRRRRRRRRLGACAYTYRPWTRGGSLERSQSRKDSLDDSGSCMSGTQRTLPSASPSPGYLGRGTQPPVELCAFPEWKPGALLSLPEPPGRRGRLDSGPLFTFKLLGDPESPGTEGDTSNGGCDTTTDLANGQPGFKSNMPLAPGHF
T2 sequence (P23944 whole entry): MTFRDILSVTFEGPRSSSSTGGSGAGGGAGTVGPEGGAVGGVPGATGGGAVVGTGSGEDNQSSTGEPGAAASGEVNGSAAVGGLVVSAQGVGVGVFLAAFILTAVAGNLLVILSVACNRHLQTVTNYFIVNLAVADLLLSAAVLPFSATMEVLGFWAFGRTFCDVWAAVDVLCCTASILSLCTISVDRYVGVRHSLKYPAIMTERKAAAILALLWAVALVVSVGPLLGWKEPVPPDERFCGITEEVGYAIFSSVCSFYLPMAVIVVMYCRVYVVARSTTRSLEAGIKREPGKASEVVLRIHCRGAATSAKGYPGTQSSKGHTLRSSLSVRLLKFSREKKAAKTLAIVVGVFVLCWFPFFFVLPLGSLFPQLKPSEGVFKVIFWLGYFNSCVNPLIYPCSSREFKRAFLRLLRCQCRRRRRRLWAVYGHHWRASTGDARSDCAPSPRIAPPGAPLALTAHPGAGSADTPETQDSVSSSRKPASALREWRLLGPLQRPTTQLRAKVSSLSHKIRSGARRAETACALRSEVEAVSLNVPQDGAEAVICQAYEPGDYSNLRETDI
T2 sequence (P43140 whole entry): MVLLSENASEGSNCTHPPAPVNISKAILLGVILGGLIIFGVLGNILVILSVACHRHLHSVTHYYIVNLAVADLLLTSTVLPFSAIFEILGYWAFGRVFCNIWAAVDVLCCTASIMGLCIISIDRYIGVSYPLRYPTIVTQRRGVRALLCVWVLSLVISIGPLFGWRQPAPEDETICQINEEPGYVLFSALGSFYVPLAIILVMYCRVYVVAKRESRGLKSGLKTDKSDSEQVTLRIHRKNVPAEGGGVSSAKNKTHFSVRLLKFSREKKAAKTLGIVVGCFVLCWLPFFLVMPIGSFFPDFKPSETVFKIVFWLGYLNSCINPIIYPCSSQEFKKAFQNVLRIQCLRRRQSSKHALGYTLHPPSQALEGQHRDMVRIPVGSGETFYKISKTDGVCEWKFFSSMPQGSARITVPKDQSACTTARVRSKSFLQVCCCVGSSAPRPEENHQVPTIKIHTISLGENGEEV

[3] = target: 5-hydroxytryptamine receptor 2A (Rattus norvegicus, UniProt P14842); assay: Inhibitory concentration against 5-hydroxytryptamine 2A receptor (Inactive at >1000 nM concentration)
[4] = target: D(2) dopamine receptor (Rattus norvegicus, UniProt P61169); assay: Inhibitory concentration against Dopamine receptor D2 (Inactive at >1000 nM concentration)
[5] = target: T3, 5-hydroxytryptamine receptor 1A (Rattus norvegicus, UniProt P19327); assay: Inhibitory concentration against 5-hydroxytryptamine 1A receptor (Inactive at >1000 nM concentration)
T3 sequence (P19327 whole entry): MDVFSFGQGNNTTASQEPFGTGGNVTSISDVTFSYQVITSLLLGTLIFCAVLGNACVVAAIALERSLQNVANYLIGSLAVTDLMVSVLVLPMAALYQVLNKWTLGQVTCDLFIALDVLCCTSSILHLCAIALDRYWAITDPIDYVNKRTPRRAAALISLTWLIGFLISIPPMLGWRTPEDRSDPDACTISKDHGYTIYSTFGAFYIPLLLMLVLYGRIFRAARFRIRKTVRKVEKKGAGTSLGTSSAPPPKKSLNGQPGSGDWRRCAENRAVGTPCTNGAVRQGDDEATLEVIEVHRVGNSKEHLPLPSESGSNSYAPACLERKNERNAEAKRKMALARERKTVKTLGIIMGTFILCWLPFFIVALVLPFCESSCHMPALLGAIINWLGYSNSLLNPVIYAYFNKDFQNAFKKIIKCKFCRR

[6] = target: T4, Alpha-1A adrenergic receptor (Rattus norvegicus, UniProt P43140); assay: The binding affinity towards Alpha-1A adrenergic receptor in the COS cell line.; format: cell-based
T4 sequence (P43140 whole entry): T2 sequence (P43140 whole entry)

[7] = system: Canis familiaris; assay: In vivo effect on urethral contractility (UP) of dog after intravenous administration.; format: functional, Canis lupus familiaris, Urethra
[8] = system: Canis familiaris; assay: In vivo hypotensive effect(DBP) in dog after intravenous administration.; format: functional, Canis lupus familiaris

D(2) dopamine receptor, sequence (P61169 whole entry): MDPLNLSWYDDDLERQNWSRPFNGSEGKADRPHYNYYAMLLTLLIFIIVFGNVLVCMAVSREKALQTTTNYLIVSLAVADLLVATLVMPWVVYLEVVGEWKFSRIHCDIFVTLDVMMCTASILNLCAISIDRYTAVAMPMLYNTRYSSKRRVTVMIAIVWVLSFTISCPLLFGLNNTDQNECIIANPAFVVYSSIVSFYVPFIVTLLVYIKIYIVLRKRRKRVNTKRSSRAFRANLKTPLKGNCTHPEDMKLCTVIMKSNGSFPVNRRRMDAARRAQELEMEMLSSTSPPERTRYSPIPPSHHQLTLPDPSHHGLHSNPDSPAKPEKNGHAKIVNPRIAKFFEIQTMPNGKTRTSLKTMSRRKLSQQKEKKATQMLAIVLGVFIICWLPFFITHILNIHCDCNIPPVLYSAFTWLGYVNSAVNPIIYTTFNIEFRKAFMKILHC
5-hydroxytryptamine receptor 2A, sequence (P14842 whole entry): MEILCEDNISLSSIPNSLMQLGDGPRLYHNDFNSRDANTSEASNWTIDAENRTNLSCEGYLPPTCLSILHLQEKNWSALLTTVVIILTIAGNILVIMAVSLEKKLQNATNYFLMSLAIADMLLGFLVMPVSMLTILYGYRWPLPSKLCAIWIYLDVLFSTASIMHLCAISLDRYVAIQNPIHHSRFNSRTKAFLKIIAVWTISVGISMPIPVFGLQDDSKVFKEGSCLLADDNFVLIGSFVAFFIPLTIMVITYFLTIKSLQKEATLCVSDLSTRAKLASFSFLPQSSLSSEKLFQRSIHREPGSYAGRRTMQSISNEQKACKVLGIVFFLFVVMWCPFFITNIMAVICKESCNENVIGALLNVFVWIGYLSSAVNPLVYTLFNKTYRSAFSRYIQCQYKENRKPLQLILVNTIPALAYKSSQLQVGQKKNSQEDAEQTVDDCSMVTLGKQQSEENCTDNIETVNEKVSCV

| SMILES | IC50 [1] [nM] | IC50 [2] [nM] | IC50 [3] [nM] | IC50 [4] [nM] | IC50 [5] [nM] | Ki [6] [nM] | ED50 [7] [mg/kg] | ED25 [8] [mg/kg] |
| --- | --- | --- | --- | --- | --- | --- | --- | --- |
| COc1cc2nc(N3CCN(C(=O)C(C)(C)C)CC3)nc(N)c2cc1OC | > 1000 | 340 | > 1000 | > 1000 | > 1000 | – | – | – |
| COc1cc2nc(N3CCC(c4ccccc4)(c4ccccc4)CC3)nc(N)c2cc1OC | > 1000 | 259 | > 1000 | > 1000 | > 1000 | – | – | – |
| COc1cc2nc(N3CCN(C(C)=O)CC3)nc(N)c2cc1OC | > 1000 | 45 | > 1000 | > 1000 | > 1000 | – | – | – |
| COc1cc2nc(N3CCN(C(C)=O)CC3)nc(NC(C)=O)c2cc1OC | > 1000 | 5080 | > 1000 | > 1000 | > 1000 | – | – | – |
| COc1cc2nc(N3CCN(C(=O)C(C)(C)Oc4ccccc4OC)CC3)nc(N)c2cc1OC | > 1000 | 49 | > 1000 | > 1000 | > 1000 | – | – | – |
| COc1cc2nc(N3CCN(C(=O)COc4c(OC)cccc4OC)CC3)nc(N)c2cc1OC | > 1000 | 6 | > 1000 | > 1000 | > 1000 | 36.2 | – | – |
| COc1cc2nc(N3CCN(OCc4ccccc4)CC3)nc(N)c2cc1OC | > 1000 | 111 | > 1000 | > 1000 | > 1000 | – | – | – |
| COc1cc2nc(N3CCN(Cc4ccccc4)CC3)nc(N)c2cc1OC | > 1000 | 32 | > 1000 | > 1000 | > 1000 | – | – | – |
| COc1cc2nc(N3CCc4c(ccc5ccccc45)C3)nc(N)c2cc1OC | > 1000 | 1.6 | > 1000 | > 1000 | > 1000 | – | – | – |

Further lines, with some results ahead:

| IC50 [1] [nM] | IC50 [2] [nM] | IC50 [3] [nM] | IC50 [4] [nM] | IC50 [5] [nM] | Ki [6] [nM] | SMILES | ED50 [7] [mg/kg] | ED25 [8] [mg/kg] |
| --- | --- | --- | --- | --- | --- | --- | --- | --- |
| > 1000 | 340 | > 1000 | > 1000 | > 1000 | – | COc1cc2nc(N3CCNCC3)nc(N)c2cc1OC | – | – |
| > 1000 | 4.6 | > 1000 | > 1000 | > 1000 | – | COc1cc2nc(N3CCN(C(=O)c4ccccc4)CC3)nc(N)c2cc1OC | – | – |
| > 1000 | 85 | > 1000 | > 1000 | > 1000 | – | COc1cc2nc(N(C)CCC(c3ccccc3)c3ccccc3)nc(N)c2cc1OC | – | – |
| > 1000 | 3140 | > 1000 | > 1000 | > 1000 | – | COc1cc2nc(N[C@H](C)Cc3ccc(OC)c(S(N)(=O)=O)c3)nc(N)c2cc1OC | – | – |
| > 1000 | > 1000 | > 1000 | > 1000 | > 1000 | – | COc1cc2nc(N3CC[N+]([O-])(Cc4ccccc4)CC3)nc(N)c2cc1OC | – | – |
| > 1000 | 40 | > 1000 | > 1000 | > 1000 | – | COc1cc2nc(N3CCN(C(c4ccccc4)c4ccccc4)CC3)nc(N)c2cc1OC | – | – |
| > 1000 | 70 | > 1000 | > 1000 | > 1000 | – | COc1cc2nc(N(C)Cc3ccccc3)nc(N)c2cc1OC | – | – |
| > 1000 | 4.1 | > 1000 | > 1000 | > 1000 | – | COc1cc2nc(N3CCc4ccccc4C3)nc(N)c2cc1OC | – | – |
| > 1000 | 3.2 | > 1000 | > 1000 | > 1000 | – | COc1cc2nc(N3CCN(C(=O)C(c4ccccc4)c4ccccc4)CC3)nc(N)c2cc1OC | – | – |
| > 1000 | 0.2 | > 1000 | > 1000 | > 1000 | – | COc1cc2c(cc1OC)CN(c1nc(N)c3cc(OC)c(OC)cc3n1)CC2 | – | – |
| > 1000 | 4 | > 1000 | > 1000 | > 1000 | 7.5 | COc1cc2nc(N3CCN(C(=O)COc4c(OC)cccc4C(C)C)CC3)nc(N)c2cc1OC | 0.065 | 0.183 |
| > 1000 | 1180 | > 1000 | > 1000 | > 1000 | – | COc1cc2nc(N3CCN(C(=O)C(C)(C)Oc4c(OC)cccc4C(C)C)CC3)nc(N)c2cc1OC | – | – |
